Data: patent publication US10221427B2 (priority 2014, dated 2019)

How the values were obtained:
ENST1 (TaENST1-4A) = test system: ENST1 (TaENST1-4A); parameters: species or system wheat cv. CM82036; conditions: in vivo
Arabidopsis root hair = experiment: Root hair assay (apoptosis-like programmed cell death); format: cell-based, Arabidopsis thaliana; conditions: 65 μM SA, one day post treatment
Method: The root hair assay was conducted as previously described (Kacprzyk et al. 2014). Briefly, five days old seedling were treated with 65 μM SA solution and incubated at 22° C. in constant light until scoring. The Apostosis-Like Program Cell Death (AL-PCD) was assessed by scoring root hair viability with a fluorescein diacetate (FDA) staining and examination under the microscope of the emission of the fluorescein when excited at the wavelength 485 nm. Root hairs negative for FDA staining were examined further and scored as programmed cell death (PCD) when having a condensed cell content and protoplast retracted away from the cell wall (as opposed to necrotic cells which have no retracted cytoplasm and therefore no distinguishable morphology compared to living cells under the light microscope). The percentage for each category was calculated as a percentage of the total number of root hair scored (about 100) averaged over at least three replicates.

| SMILES | ENST1 expression in tissues treated with the toxin (ENST1 (TaENST1-4A)) | ENST1 induction by DON (ENST1 (TaENST1-4A)) [fold] | programmed cell death (PCD) in root hairs after SA treatment (Arabidopsis root hair) |
| --- | --- | --- | --- |
| CC1=C[C@H]2O[C@@H]3[C@H](O)C[C@](C)([C@@]2(CO)[C@H](O)C1=O)[C@]31CO1 [DON, deoxynivalenol] | high expression | 43 |  |
| O=C(O)c1ccccc1O [SA, salicylic acid] |  |  | significant inductions of PCD |
